{"source": "patent US9969694B2", "about": "“N-(arylalkyl)-N′-pyrazolyl-urea, thiourea, guanidine and cyanoguanidine compounds as TrkA kinase inhibitors” (Array BioPharma Inc., priority 2012, dated 2018)"}
{"biological_target": "T1, His-tagged recombinant human TrkA (Homo sapiens, UniProt P04629)", "T1 construct": "6HIS tagged cytoplasmic domain from Invitrogen, Catalog No. PV3144; purchased Invitrogen PV3144", "T1 sequence (P04629 440-796 limits assumed)": "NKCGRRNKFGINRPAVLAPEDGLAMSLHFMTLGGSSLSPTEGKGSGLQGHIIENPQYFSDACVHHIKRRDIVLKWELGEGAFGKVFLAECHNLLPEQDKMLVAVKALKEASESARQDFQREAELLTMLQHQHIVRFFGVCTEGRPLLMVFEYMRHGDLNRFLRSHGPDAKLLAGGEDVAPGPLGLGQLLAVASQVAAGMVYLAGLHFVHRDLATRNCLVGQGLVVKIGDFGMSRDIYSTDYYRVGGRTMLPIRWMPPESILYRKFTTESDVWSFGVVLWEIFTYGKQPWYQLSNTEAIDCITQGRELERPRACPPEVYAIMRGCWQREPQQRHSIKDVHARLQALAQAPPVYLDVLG", "test": "TrkA Kinase Binding Assay (LanthaScreen Eu)", "details": "averaged IC50; TR-FRET binding, 60 min, 22° C.; read-out: TrkA Enzyme IC50", "protocol": "TrkA binding activity was determined in a TrkA LanthaScreen™ Eu Kinase Binding Assay. 5 nM His-tagged recombinant human TrkA (6HIS tagged cytoplasmic domain from Invitrogen, Catalog No. PV3144) was incubated with 4 nM Alexa-Fluor® Tracer 236 (Invitrogen Cat. No. PV5592), 2 nM biotinylated anti-His (Invitrogen Cat. No. PV6090), and 2 nM europium-labeled Streptavidin (Invitrogen Cat. No. PV5899), in buffer (25 mM MOPS, pH 7.5, 5 mM MgCl2, 0.005% Triton X-100). Three fold serial dilutions of compounds of the invention in DMSO were added to a final percentage of 2% DMSO. After 60-minute incubation at 22° C., the reaction was measured using the EnVision mutlimode plate reader (PerkinElmer) via TR-FRET dual wavelength detection at […]. The percent of control was calculated using a ratiometric emission factor. The IC50 values were determined by fitting a four parameter model to the percent of control data.\nTable A provides averaged IC50 values for compounds of the invention when tested in the assay of Example A, where A represents an averaged IC50 value <100 nM; B represents an averaged IC50 value from 100 to 1,000 nM; and C represents an average 1050 value above 1000 nM.", "units": {"IC50": "nM"}}
{"smiles": "O=C(Nc1c2c(nn1-c1ccccc1)CCC2)NC(Cc1ccccc1)Cc1ccc(F)c(F)c1", "note": "(stereo not drawn) [Example 47, 1-(1-(3,4-difluorophenyl)-3-phenylpropan-2-yl)-3-(2-phenyl-2,4,5,6-tetrahydrocyclopenta[c]pyrazol-3-yl)urea]", "IC50": "< 100"}
{"smiles": "Cc1c(-c2cnn(C)c2)nn(-c2ccccc2)c1NC(=O)NCc1cccc2ccccc12", "note": "[Example 43, 1-(1′,4-dimethyl-1-phenyl-1H,1′H-3,4′-bipyrazol-5-yl)-3-(naphthalen-1-ylmethyl)urea]", "IC50": "100 to 1000"}
{"smiles": "COCc1ccc(OC2CCC2)c(CNC(=O)Nc2c(C)c(-c3cnn(C)c3)nn2-c2ccccc2)c1", "note": "[Example 18, 1-(2-cyclobutoxy-5-(methoxymethyl)benzyl)-3-(1′,4-dimethyl-1-phenyl-1H,1′H-[3,4′-bipyrazol]-5-yl)urea]", "IC50": "100 to 1000"}
{"smiles": "COCc1ccc(OC(F)(F)F)c(CNC(=O)Nc2c(C)c(OC[C@@H](C)N)nn2-c2ccccc2)c1", "note": "[Example 97, (R)-1-(3-(2-aminopropoxy)-4-methyl-1-phenyl-1H-pyrazol-5-yl)-3-(5-(methoxymethyl)-2-(trifluoromethoxy)benzyl)urea]", "IC50": "< 100"}
{"smiles": "COCc1ccc(OC(F)(F)F)c(CNC(=O)Nc2c(C)c(O[C@@H]3CCN(C)C[C@@H]3F)nn2-c2ccccc2)c1", "note": "[Example 101, 1-(3-(((3S,4R)-3-fluoro-1-methylpiperidin-4-yl)oxy)-4-methyl-1-phenyl-1H-pyrazol-5-yl)-3-(5-(methoxymethyl)-2-(trifluoromethoxy)benzyl)urea]", "IC50": "< 100"}
{"smiles": "COCc1ccc(OC(F)(F)F)c(CNC(=O)Nc2c(C)c(OC3CC4(CNC4)C3)nn2-c2ccccc2)c1", "note": "[Example 79, 1-(3-(2-azaspiro[3.3]heptan-6-yloxy)-4-methyl-1-phenyl-1H-pyrazol-5-yl)-3-(5-(methoxymethyl)-2-(trifluoromethoxy)benzyl)urea]", "IC50": "< 100"}
{"smiles": "CNC(=O)c1nn(-c2ccccc2)c(NC(=O)NCc2cc(Br)ccc2OC(F)(F)F)c1C", "note": "[Example 64, 5-(3-(5-bromo-2-(trifluoromethoxy)benzyl)ureido)-N,4-dimethyl-1-phenyl-1H-pyrazole-3-carboxamide]", "IC50": "< 100"}
{"smiles": "COCc1ccc(OC(F)(F)F)c(CNC(=O)Nc2c(C)c(OCC3(F)CCNCC3)nn2-c2ccccc2)c1", "note": "[Example 70, 1-(3-((4-fluoropiperidin-4-yl)methoxy)-4-methyl-1-phenyl-1H-pyrazol-5-yl)-3-(5-(methoxymethyl)-2-(trifluoromethoxy)benzyl)urea]", "IC50": "< 100"}
{"smiles": "COCc1ccc(C2CC(F)(F)C2)c(CNC(=O)Nc2c(C)c(-c3cnn(C)c3)nn2-c2ccccc2)c1", "note": "[Example 38, 1-(2-(3,3-difluorocyclobutyl)-5-(methoxymethyl)benzyl)-3-(1′,4-dimethyl-1-phenyl-1H,1′H-[3,4′-bipyrazol]-5-yl)urea]", "IC50": "< 100"}
{"smiles": "COCc1ccc(CN)c(CNC(=O)Nc2c(C)c(-c3cnn(C)c3)nn2-c2ccccc2)c1", "note": "[Example 118, 1-(2-(aminomethyl)-5-(methoxymethyl)benzyl)-3-(1′,4-dimethyl-1-phenyl-1H,1′H-[3,4′-bipyrazol]-5-yl)urea]", "IC50": "100 to 1000"}
{"smiles": "COCc1cccc(C(NC(=O)Nc2c(C)c(-c3cnn(C)c3)nn2-c2ccccc2)C2CC2)c1", "note": "(stereo not drawn) [Example 28, 1-(cyclopropyl(3-(methoxymethyl)phenyl)methyl)-3-(1′,4-dimethyl-1-phenyl-1H,1′H-[3,4′-bipyrazol]-5-yl)urea]", "IC50": "100 to 1000"}
{"smiles": "COCc1ccc(C(C)(C)C)c(CNC(=O)Nc2c(C)c(-c3cnn(C)c3)nn2-c2ccccc2)c1", "note": "[Example 35, 1-(2-(tert-butyl)-5-(methoxymethyl)benzyl)-3-(1′,4-dimethyl-1-phenyl-1H,1′H-[3,4′-bipyrazol]-5-yl)urea]", "IC50": "< 100"}
{"smiles": "Cc1c(OCC2CCN(C)CC2)nn(-c2ccccc2)c1NC(=O)NCc1ccccc1OC(F)(F)F", "note": "[Example 115, 1-(4-methyl-3-((1-methylpiperidin-4-yl)methoxy)-1-phenyl-1H-pyrazol-5-yl)-3-(2-(trifluoromethoxy)benzyl)urea]", "IC50": "< 100"}
{"smiles": "COCc1ccc(OCC2CC2)c(CNC(=O)Nc2c(C)c(-c3cnn(C)c3)nn2-c2ccccc2)c1", "note": "[Example 14, 1-(2-(cyclopropylmethoxy)-5-(methoxymethyl)benzyl)-3-(1′,4-dimethyl-1-phenyl-1H,1′H-[3,4′-bipyrazol]-5-yl)urea]", "IC50": "< 100"}
{"smiles": "O=C(Nc1c2c(nn1-c1ccccc1)CCC2)NC(Cc1ccccc1)Cc1ccccc1Cl", "note": "(stereo not drawn) [Example 46, 1-(1-(2-chlorophenyl)-3-phenylpropan-2-yl)-3-(2-phenyl-2,4,5,6-tetrahydrocyclopenta[c]pyrazol-3-yl)urea]", "IC50": "< 100"}
{"smiles": "COCc1ccc(OC(F)(F)F)c(CNC(=O)Nc2c(C)c(OCc3nnc(C)o3)nn2-c2ccccc2)c1", "note": "[Example 61]", "IC50": "< 100"}
{"smiles": "COCc1ccc(C2CC2)c(CNC(=O)Nc2c(C)c(-c3ccn(C)c(=O)c3)nn2-c2ccccc2)c1", "note": "[Example 7, 1-(2-cyclopropyl-5-(methoxymethyl)benzyl)-3-(4-methyl-3-(1-methyl-2-oxo-1,2-dihydropyridin-4-yl)-1-phenyl-1H-pyrazol-5-yl)urea]", "IC50": "< 100"}
{"smiles": "COc1ccccc1CC(Cc1ccccc1)NC(=O)Nc1c2c(nn1-c1ccccc1)CCC2", "note": "(stereo not drawn) [Example 48, 1-(1-(2-methoxyphenyl)-3-phenylpropan-2-yl)-3-(2-phenyl-2,4,5,6-tetrahydrocyclopenta[c]pyrazol-3-yl)urea]", "IC50": "100 to 1000"}
{"smiles": "COCc1ccc(OC(F)(F)F)c(CNC(=O)Nc2c3c(nn2-c2ccccc2)CSC3)c1", "note": "[Example 57, 1-(5-(methoxymethyl)-2-(trifluoromethoxy)benzyl)-3-(2-phenyl-4,6-dihydro-2H-thieno[3,4-c]pyrazol-3-yl)urea]", "IC50": "< 100"}
{"smiles": "COCc1ccc(OC(F)(F)F)c(CNC(=O)Nc2c(C)c(O[C@@H]3CCNC3)nn2-c2ccccc2)c1", "note": "[Example 84, (R)-1-(5-(methoxymethyl)-2-(trifluoromethoxy)benzyl)-3-(4-methyl-1-phenyl-3-(pyrrolidin-3-yloxy)-1H-pyrazol-5-yl)urea]", "IC50": "< 100"}
{"smiles": "COCc1ccc(OC2CCC2)c(CNC(=O)Nc2c(C)c(-c3ccc(C)nc3)nn2-c2ccccc2)c1", "note": "[Example 19, 1-(2-cyclobutoxy-5-(methoxymethyl)benzyl)-3-(4-methyl-3-(6-methylpyridin-3-yl)-1-phenyl-1H-pyrazol-5-yl)urea]", "IC50": "< 100"}
{"smiles": "CNC(=O)c1nn(-c2ccccc2)c(NC(=O)NCc2cc(COC)ccc2OCC(F)(F)F)c1C", "note": "[Example 68, 5-(3-(5-(methoxymethyl)-2-(2,2,2-trifluoroethoxy)benzyl)ureido)-N,4-dimethyl-1-phenyl-1H-pyrazole-3-carboxamide]", "IC50": "100 to 1000"}
{"smiles": "COCc1ccc(OC(F)(F)F)c(CNC(=O)Nc2c(C)c(OC[C@H](C)N)nn2-c2ccccc2)c1", "note": "[Example 96, (S)-1-(3-(2-aminopropoxy)-4-methyl-1-phenyl-1H-pyrazol-5-yl)-3-(5-(methoxymethyl)-2-(trifluoromethoxy)benzyl)urea]", "IC50": "< 100"}
{"smiles": "COCc1ccc(OC(F)(F)F)c(CNC(=O)Nc2c(C)c(OC[C@@H]3CCC(=O)N3)nn2-c2ccccc2)c1", "note": "[Example 131, (S)-1-(5-(methoxymethyl)-2-(trifluoromethoxy)benzyl)-3-(4-methyl-3-((5-oxopyrrolidin-2-yl)methoxy)-1-phenyl-1H-pyrazol-5-yl)urea]", "IC50": "< 100"}
